These results are taken from patent publication US20080070986A1, “ALKYLETHER CITRATES FOR SELECTIVELY CLEANING THE SKIN” (priority 2006, published 2008).

Common to all, as to assay: Minimum inhibiting concentration (MIC), dilution series to DIN 58940 and DIN 58944
Type in all cases: cell-based

In one assay the test system is Malassezia furfur. Also noted: unit not given here. The note with it: test solution 10% active substance. The method, then: (§1) The scale of an antimicrobial effect of surfactants can be established in a biological test system in which the minimum inhibiting concentration (MIC) is comparatively determined under laboratory conditions. In a dilution series of the test substance, the MIC is just that concentration at which no further growth is possible. The milder a surfactant, the higher the MIC value. The minimum inhibiting concentration of various surfactants was determined for three microorganisms occurring on the skin (Table 1). The surfactants are referred to by their names under the INCI nomenclature. [table] [table]

A further assay deals with Propionibacterium acnes. Details: Minimum inhibiting concentration: unit not given here. To be noted: for Minimum inhibiting concentration: test solution 10% active substance. As to the method: as §1
In assay [1] the test system is Staphylococcus epidermidis. Details: Minimum inhibiting concentration: unit not given here. To be noted: for Minimum inhibiting concentration: test solution 10% active substance. As to the method: as §1
The mark [2] stands for this setting: in words, versus the other surfactants of Table 1.

Take Sodium Laureth Sulfate: the Minimum inhibiting concentration with Malassezia furfur (pH 6.5, single surfactants) is reported as greater than 0.5; in the assay with Malassezia furfur (surfactant combinations), “≧1”; with Propionibacterium acnes (pH 6.5, single surfactants) it was 0.05; in the assay with Propionibacterium acnes (surfactant combinations), 0.05; in assay [1] (pH 6.5, single surfactants), 0.5; in assay [1] (surfactant combinations), 0.5.
As for Lauryl Glucoside, the Minimum inhibiting concentration in the assay on Malassezia furfur (pH 6.5, single surfactants) was greater than 0.5; in the assay on Propionibacterium acnes (pH 6.5, single surfactants), 0.05; in assay [1] (pH 6.5, single surfactants), 0.5.
For the substance Laureth-7 Citrate, the Minimum inhibiting concentration is listed as greater than 0.5 in the assay on Malassezia furfur (pH 6.5, single surfactants); “≧1” with Malassezia furfur (surfactant combinations); greater than 0.5 in the assay on Propionibacterium acnes (pH 6.5, single surfactants); “≧1” in the assay with Propionibacterium acnes (surfactant combinations); greater than 0.5 in assay [1] (pH 6.5, single surfactants); “≧1” in assay [1] (surfactant combinations). Also, the “Inhibition compared with the other surfactants” value (with Propionibacterium acnes (setting [2]); in assay [1] (setting [2])) was “only inhibited at considerably higher concentrations” throughout.
Take Cocamidopropyl betaine: the Minimum inhibiting concentration in the assay on Malassezia furfur (pH 6.5, single surfactants) is greater than 0.5; in the assay with Propionibacterium acnes (pH 6.5, single surfactants) it was 0.05; in assay [1] (pH 6.5, single surfactants), 0.1.
